Measured values from patent US11286263B2, “Macrocyclic fluorine substituted indole derivatives” (The Broad Institute, Inc., priority 2017, dated 2022).
Structures can show the parent of a compound that is named as a salt. Where two headings read alike, the source gives them in different places.

What was measured:
HMC-1-8 = assay: Antiproliferation assay HMC-1-8 (Assay 7); format: cell-based
Description: Assessment of the Anti-Proliferative Effect of Compounds in Different Cell Lines
The impact of compounds on the proliferation of different cell lines was assessed using the CellTiter-Glo® Luminescent Cell Viability reagent from Promega (G7573).
In parallel, cells were plated in a reference (day 0) plate for time zero determination.
Rim wells were excluded. The cells were incubated for 72 h hours in a humidified incubator at 37° C. The day 0 plate was measured by adding 30 μL/well of CTG solution (CellTiter-Glo® Luminescent Cell Viability reagent, Promega G7573) to time zero wells in the reference plate followed by a 10 minutes incubation and luminescence reading at 0.1 ms. using the PHERAstar FS microplate reader (BMG Labtech).
After 72 h incubation, the treated plates were measured in the same way as the day 0 plate mentioned above.

MCL-1 = MCL-1 (Homo sapiens (Human), UniProt Q07820, K194A/K197A/R201A); assay: Protein-compound interaction assay (SPR assay, Assay 8); format: binding; settings: immobilized MBP-MCL-1, 25° C., geometric mean
Sequence of MCL-1 (Q07820 whole entry K194A/K197A/R201A, looked up): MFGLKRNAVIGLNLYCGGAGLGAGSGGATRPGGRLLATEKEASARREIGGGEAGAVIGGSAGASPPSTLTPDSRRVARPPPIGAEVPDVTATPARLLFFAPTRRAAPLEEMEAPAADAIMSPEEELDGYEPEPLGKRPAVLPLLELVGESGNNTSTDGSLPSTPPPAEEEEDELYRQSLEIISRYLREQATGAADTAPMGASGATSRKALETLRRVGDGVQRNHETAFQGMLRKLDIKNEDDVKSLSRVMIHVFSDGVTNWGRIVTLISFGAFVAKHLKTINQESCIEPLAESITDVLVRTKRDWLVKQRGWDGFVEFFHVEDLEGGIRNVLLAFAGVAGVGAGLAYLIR
Excerpt: Assay 8 Protein-Compound Interaction Assay (SPR Assay)
The ability of the compounds described in this invention to bind to MCL-1 may be determined using surface plasmon resonance (SPR). This allows for the quantification of binding in terms of the equilibrium dissociation constant (KD [M]), as well as association and dissociation rate constants (kon [1/M 1/s] and koff [1/s], respectively). The measurements may be performed using Biacore® T200 or Biacore® S200 instruments (GE Healthcare).
For SPR measurements, recombinant MCL-1 (amino acids 173-321, N-terminal fused to Maltose Binding Protein (MBP) (SEQ ID 1) purchased from Beryllium (Bedford, Mass., USA)) was immobilized using standard amine coupling (Johnsson B et al, Anal Biochem. 1991 Nov. 1; 198(2):268-77). Briefly, carboxymethylated dextran biosensor chips (Series S Sensor Chip CMS, GE Healthcare) were activated with 1-ethyl-3-(3-dimethylaminopropyl)-carbodiimide hydrochloride (EDC) and N-hydroxysuccinimide (NHS) according to the supplier's instructions. MBP-MCL-1 was diluted in 1×PBS-P+ (GE Healthcare) and injected on the activated chip surface. Subsequently, a solution of 1 M ethanolamine-HCl (GE Healthcare) was injected to block unreacted groups, resulting in approximately 400-2500 response units (RU) of immobilized protein. A reference surface was generated by treatment with NHS-EDC and ethanolamine-HCl. […] For SPR binding-measurements, serial dilutions of compound (eight dilution steps, typically ranging from 0.2 nM up to 1 μM) were injected over immobilized protein. […] Compounds were injected for 60 s followed by a dissociation time of up to 1000 s.
The double-referenced sensorgrams were fit to a simple reversible Langmuir 1:1 reaction mechanism as implemented in the Biacore® T200 and S200 evaluation software (T200 evaluation software version 2.0 and S200 evaluation software version 1.0, GE Healthcare).

MCL1 protein = MCL1 protein (Homo sapiens (Human), UniProt Q07820); assay: PIxEL: protein-protein interaction in permeabilized cells by ELISA (Assay 5); format: cell-based; settings: permeabilized RKO cells, biotin-BIM BH3 peptide, median
Sequence of MCL1 protein (Q07820 whole entry): as the sequence (Q07820 whole entry K194A/K197A/R201A, looked up) above, with A194K, A197K, A201R counted along it
Description: Assay 5 PI×EL: Protein-Protein Interaction in Permeabilized Cells by ELISA
Most MCL1 protein molecules are localized at the mitochondria outer membrane and sequester pro-apoptotic proteins through binding of their BCL2 homology domain 3 (BH3 domain). MEB buffer (150 mM mannitol, 10 mM HEPES pH 7.5, 50 mM KCl, 20 μM EDTA, 20 μM EGTA, 5 mM potassium succinate, 0.1% protease-free BSA (SIGMA) with low dose digitonin (0.002%) permeabilizes plasma membrane while leaves live mitochondria, where MCL1 maintains its native localization and conformation. Unlike biophysical assays (e.g. TR-FRET) that use truncated recombinant MCL1 protein, this assay uses full length endogenous MCL1 protein at mitochondria outer membrane. It measures the interaction between MCL1 protein and biotinylated BIM BH3 peptide. Compounds can compete with BIM BH3 peptide to bind to MCL1 protein. This serum free assay measures the affinity between MCL1 protein and compound in permeabilized cells, therefore it is not affected by serum binding and cell permeability, and can measure the intrinsic compound affinity.
On day 1, RKO colon cancer cell line cells were plated at 0.8 million cells/ml, 100 μl/well in 96-well flat bottom TC plates (Corning). MCL1 antibody (Santa Cruz sc-12756) were diluted at 200 fold (final concentration 1 μg/ml) in carbonate buffer (Thermo Fisher Scientific, pH 9.6), and 50 μl of diluted antibody was added to each well of high bind ELISA plates (SARSTEDT). Each plate was tapped to make sure liquid covering entire bottom of wells and incubate at 37° C. overnight.
On the second day, MCL1 antibody was washed from ELISA plate. 250 μl Odyssey® Blocking Buffer (PBS) (Li-Cor) was added to each well, incubated at room temperature for at least 1 hour, then washed once with 250 μl 1×PBST. Plates with RKO cells were gently washed once with 100 μl/well PBS, once with 100 μl/well MEB buffer without digitonin, then 100 μl of MEB buffer with 0.002% digitonin was gently added to each well. Compounds were added with HP Tecan compound dispenser in 3-fold dilution series, highest dose 30 μM, 10-dose per compound in quadruplicates. Biotin-BIM peptide (synthesized by 21st Century) was added with HP Tecan compound dispenser at 0.2 μM immediately after the addition of compounds. Plates were rocked for 1 hour at room temperature. Then MEB buffer was aspirated and 50 μl of CHAPS buffer (50 mM Tris-Cl, pH 7.4, 150 mM NaCl, 1% CHAPS, 1 mM EDTA, 1 mM EGTA, complete protease inhibitors (Roche), PhosSTOP (Roche)) was added to each well. Plates were rocked for 1 hour at 4° C., then 45 μl cell lysate from each well were transferred to ELISA plates coated with MCL1 antibody. Plates were incubated overnight in the cold room with rocking.
On the third day, ELISA plates were washed once with 250 μl 1×PBST. Streptavidin-poly-HRP (Thermo Fisher Scientific) was diluted to 20 ng/ml in Odyssey blocking buffer plus 0.05% Triton-100, and 100 μl was added to each well of the ELISA plate. Plates were incubated at room temperature for 1 hour with rocking, then washed with 100 μL 1×PBST for 3 times. Each SuperSignal ELISA Femto Maximum Sensitivity substrate was added to a 50-ml tube and mixed, then 100 μl of mixed substrate was added to each well. Plates were shaken for 1 minute then luminescence was measured by Envision plate reader […]. Signal of each well were normalized by no-compound control and no-cell control. IC50 was calculated using Graphic Pad PRISM software.

Row | SMILES | Kd (MCL-1) [nM] | kon (MCL-1) [M⁻¹ s⁻¹] | koff (MCL-1; read-out: koff) [s⁻¹] | IC50 (MCL1 protein) [nM] | other results
1 | Cc1c2c(nn1C)COCCCCn1c(C(=O)O)c(CCCOc3cccc4ccccc34)c3ccc(F)c-2c31 (racemic) [Example 2, (rac)-4-fluoro-2,3-dimethyl-7-[3-(naphthalen-1-yloxy)propyl]-2,10,11,12,13,15-hexahydro-pyrazolo[4′,3′:9,10][1,6]oxazacycloundecino[8,7,6-hi]indole-8-carboxylic acid] | 43 | 230000 | 0.01 | – | IC50 (HMC-1-8; 72 h, HMC-1-8 cells, CellTiter-Glo, single determinations, read-out: IC50 Antiproli HMC-1-8): 10000 nM; IC50 (HMC-1-8; HMC-1-8 cells, 72 h, CellTiter-Glo; single determinations; listed as 02; read-out: IC50 Antiproli HMC-1-8): 7580 nM
2 | CCc1c2c(nn1C)COCCCCn1c(C(=O)O)c(CCCOc3cccc4cc(F)ccc34)c3ccc(F)c-2c31 (single isomer, unassigned; enantiomer 1) [Example 24, 3-ethyl-4-fluoro-7-{3-[(6-fluoronaphthalen-1-yl)oxy]propyl}-2-methyl-2,10,11,12,13,15-hexahydropyrazolo[4′,3′:9,10][1,6]oxazacycloundecino[8,7,6-hi]indole-8-carboxylic acid (enantiomer 1)] | 2.9 | 3.3e+06 | 0.0097 | 424 | IC50 (HMC-1-8; HMC-1-8 cells, 72 h, CellTiter-Glo; single determinations; read-out: IC50 Antiproli HMC-1-8): 2500 nM
3 | Cc1c2c(nn1C)COCCCCn1c(C(=O)O)c(CCCOc3ccc(F)c4ccccc34)c3ccc(F)c-2c31 (single isomer, unassigned; enantiomer 1) [Example 16, 4-fluoro-7-{3-[(4-fluoronaphthalen-1-yl)oxy]propyl}-2,3-dimethyl-2,10,11,12,13,15-hexahydro-pyrazolo[4′,3′:9,10][1,6]oxazacycloundecino[8,7,6-hi]indole-8-carboxylic acid (enantiomer 1)] | – | – | – | 32300 | –
4 | Cc1c2c(nn1C)COCCCCn1c(C(=O)O)c(CCCOc3cccc4cc(F)ccc34)c3ccc(F)c-2c31 (single isomer, unassigned; enantiomer 1) [Example 13, 4-fluoro-7-{3-[(6-fluoronaphthalen-1-yl)oxy]propyl}-2,3-dimethyl-2,10,11,12,13,15-hexahydro-pyrazolo[4′,3′:9,10][1,6]oxazacycloundecino[8,7,6-hi]indole-8-carboxylic acid-N-ethylethanamine salt (enantiomer 1)] | 0.69 | 1.1e+07 | 0.0077 | 872 | –
5 | CCc1c2c(nn1C)COCCCCn1c(C(=O)O)c(CCCOc3cccc4ccccc34)c3ccc(F)c-2c31 (single isomer, unassigned; enantiomer 1) [Example 7, 3-ethyl-4-fluoro-2-methyl-7-{3-[(naphthalen-1-yl)oxy]propyl}-2,10,11,12,13,15-hexahydro-pyrazolo[4′,3′:9,10][1,6]oxazacycloundecino[8,7,6-hi]indole-8-carboxylic acid-N-ethylethanamine salt (enantiomer 1)] | 2.3 | 6e+06 | 0.014 | 2060 | –
6 | CCc1c2c(nn1C)COCCCCn1c(C(=O)O)c(CCCOc3cccc4cc(F)ccc34)c3ccc(F)c-2c31 (single isomer, unassigned; enantiomer 2) [Example 23, 3-ethyl-4-fluoro-7-{3-[(6-fluoronaphthalen-1-yl)oxy]propyl}-2-methyl-2,10,11,12,13,15-hexahydropyrazolo[4′,3′:9,10][1,6]oxazacycloundecino[8,7,6-hi]indole-8-carboxylic acid-N-ethylethanamine salt (enantiomer 2)] | 27 | – | – | 15100 | koff (MCL-1): 0.0026 s⁻¹; kon [1/M 1/s] (MCL-1): 9.7E4 1/M 1/s

Second part, led by results:

Row | Kd (MCL-1) [nM] | kon (MCL-1) [M⁻¹ s⁻¹] | koff (MCL-1; read-out: koff) [s⁻¹] | IC50 (MCL1 protein) [nM] | SMILES | other results
7 | – | – | – | 7350 | CCc1nn(C)c2c1-c1c(F)ccc3c(CCCOc4cccc5ccccc45)c(C(=O)O)n(c13)CCCCOC2 (racemic) [Example 37, (rac)-12-ethyl-13-fluoro-10-methyl-1-(3-(naphthalen-1-yloxy)propyl)-4,5,6,7,9,10-hexahydro-pyrazolo[4′,3′:9,10][1]oxa[6]azacycloundecino[8,7,6-hi]indole-2-carboxylic acid] | –
8 | – | – | – | 4160 | Cc1c2c(nn1C)COCCCCn1c(C(=O)O)c(CCCOc3ccc(F)c4ccccc34)c3ccc(F)c-2c31 (racemic) [Example 15, (rac)-13-fluoro-1-(3-((4-fluoronaphthalen-1-yl)oxy)propyl)-11,12-dimethyl-4,5,6,7,9,11-hexahydropyrazolo[4′,3′:9,10][1]oxa[6]azacycloundecino[8,7,6-hi]indole-2-carboxylic acid] | –
9 | – | – | – | 2430 | CCc1c2c(nn1C)COCCCCn1c(C(=O)O)c(CCCOc3ccc(F)c4ccccc34)c3ccc(F)c-2c31 (single isomer, unassigned; enantiomer 1) [Example 27, 3-ethyl-4-fluoro-7-{3-[(4-fluoronaphthalen-1-yl)oxy]propyl}-2-methyl-2,10,11,12,13,15-hexahydropyrazolo[4′,3′:9,10][1,6]oxazacycloundecino[8,7,6-hi]indole-8-carboxylic acid-N-ethylethanamine salt (enantiomer 1)] | –
10 | – | – | – | 8910 | CCc1nn(C)c2c1-c1c(F)ccc3c(CCCOc4ccc(F)c5ccccc45)c(C(=O)O)n(c13)CCCCOC2 (single isomer, unassigned; enantiomer 1) [Example 42, 3-ethyl-4-fluoro-7-{3-[(4-fluoronaphthalen-1-yl)oxy]propyl}-1-methyl-1,10,11,12,13,15-hexahydropyrazolo[4′,3′:9,10][1,6]oxazacycloundecino[8,7,6-hi]indole-8-carboxylic acid (enantiomer 1)] | –
